Laboratory results reported in patent US10662203B2, “Pyrido[2,3-b]indole compounds for the treatment and prophylaxis of bacterial infection” (Hoffmann-La Roche Inc., priority 2017, dated 2020).
≈ marks a conversion by molar mass, not a printed value.

Experiments:
A. baumannii (ATCC17978) = assay: 50% growth inhibitory concentration (IC50) determination assay; type: cell-based; conditions: Iso-Sensitest broth, 0.098 = detection limit
How it was run: (§1)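 Growth was tracked as optical density at 600 nm every 20 minutes for 16 h at 35±2° C, giving IC50 values. Inocula of ~5×10^5 CFU/mL in Iso-Sensitest broth faced two-fold compound dilutions spanning 50 to 0.097 μM final.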

[1] = test system: K. pneumoniae (ATCC10031); assay: as above; type: cell-based; conditions: Klebsiella pneumoniae, Iso-Sensitest broth, 0.098 = detection limit
How it was run: as §1

S. aureus (ATCC29213) = assay: as above; type: cell-based; conditions: Staphylococcus aureus, Iso-Sensitest broth, 0.098 = detection limit
How it was run: as §1

[2] = test system: HepG2 cells (ATCC HB-8065); assay: Cytotoxicity assay (HepG2, CellTiter-Blue cell viability); type: cell-based; conditions: HepG2 cells, 3 days treatment; "*": the detection limit
How it was run: (§2)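 HepG2 cells (1.2×10^4 per well) exposed to compounds for 3 days; viability then read by CellTiter-Blue fluorescence after 3 h at 37 °C. CC50 from four-parameter logistic fit.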

[3] = Single dose PK study (SDPK) in female CD-1 mouse; type: in vivo; conditions: MOUSE IV, 1.0 mg/kg-Solution; for clearance: female, CD-1, plasma, read-out: CL total
Description: Single Dose PK Study (SDPK) in Female CD-1 Mouse: The single dose PK in female CD-1 mouse was performed to assess compound's pharmacokinetic properties. One group of animals were dosed via bolus intravenous (IV) of the respective compound. Blood samples (approximately 30 μL) were collected via saphenous vein at 5 mins, 15 min, 30 min, 1 hr, 2 hr, 4 hr and 7 hr. For last time point (24 hr), samples were collected via cardiac puncture while the mouse was under anesthesia. Blood samples were placed into tubes containing EDTA-K2 anticoagulant (2 μL of 0.5M per tube) and centrifuged at 3000 rpm for 10 minutes at 4° C. within half an hour to separate plasma from the samples. Following centrifugation, plasma samples were stored in polypropylene tubes, quick frozen over dry ice and kept at −70±10° C. until LC/MS/MS analysis. The pharmacokinetic parameters were calculated using non-compartmental module of WinNonlin® Professional 6.4.

[4] = test system: multiple species and strains; assay: Minimal inhibitory concentration (MIC) and MIC90 determination, broth microdilution (CLSI M07-A10); conditions: S9: P. aeruginosa ATCC BAA-2113
Description: Minimal Inhibitory Concentration (MIC) and MIC90 Determination:
The MIC of antibacterial compounds against multiple species and strains was determined using the broth microdilution method according to M07-A10 Clinical and Laboratory Standards Institute (CLSI) guidelines (CLSI (2015) Methods for dilution antimicrobial susceptibility tests for bacteria that grow aerobically; Approved Standard, Tenth Edition. CLSI Document M7-A10 (ISBN 1-56238-987-4). Wayne, Pa.: Clinical and Laboratory Standards Institute, 19087, USA.). In short, bacterial strain preparation was performed on D1 and D2. […] 5-10 well-isolated colonies of similar morphology were selected and re-streaked onto fresh agar plates using sterile loops and incubated for 20-24 hr at 35±2° C. Bacterial strains were subcultured two times to ensure fresh inoculums for MIC screening. […] Alternatively, 1-2 colonies were transferred into 500 μL of saline and OD600 was adjusted to ˜0.1 using an OD meter. Bacterial inoculum was diluted by 1:280 for Gram-positive strains and 1:400 for Gram-negative strains into corresponding medium broth (CAMHB, CAMHB+3% lysed horse blood, HTM) (e.g. 35.6 μL of inoculum into 10 mL of CAMHB or 25 μL of inoculum into 10 mL of CAMHB). […] Compound stock concentration=[(highest testing concentration)×100 μL/2 μL] (e.g. if the required highest testing concentration is 64 μg/mL in assay plates, stock concentration=64 μg/mL×100 μL/2 μL=3.2 mg/mL). […] of each well was transferred in a new MTP, which served as the test plate by subsequent inoculation. The bacterial suspension prepared above is dispensed at 98 μL/well within 15 minutes after preparation. Negative controls (lack of bacterial cells) and growth control wells (lack of compound) were included in all plates. MTPs were incubated for 18-24 hours at 35±2° C. in ambient air. The MIC was recorded and CFUs were calculated on Day 4. The assay plate was placed on the top of MIC reader, and the magnification mirror was adjusted to read each wells, recording growth status as raw data. Photo images of each assay plates were recorded using Q Count 530 (Spiral Biotech). The MIC value of each compound, expressed as […], was determined as the lowest concentration required for complete growth inhibition (no visible growth).

[5] = Lyophilisation solubility assay (LYSA); type: physicochemical; conditions: phosphate buffer, pH 6.5, aqueous buffer, thermodynamic from solid, 0.05 M phosphate buffer, HPLC-UV
How it was run: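 Duplicate samples made from 10 mM DMSO stock. DMSO evaporated and the residue taken up in 0.05 M phosphate buffer, pH 6.5, stirred 1 h and shaken 2 h, then left overnight. Filtrate and its 1/10 dilution quantified by HPLC-UV.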

[6] = Cytotoxicity assay (HepG2, CellTiter-Blue cell viability); type: cell-based; conditions: human; HepG2 cells, 3 days treatment; "*": the detection limit; read-out: CC50
How it was run: as §2

[7] = Acinetobacter baumannii, ATCC17978, A. baumannii ATCC17978

For CNc1cc(F)c(F)c2c1[nH]c1ncc(-c3cnc4c(c3)c(=O)c(C(=O)O)cn4C3CCNC3)c(N(C)C)c12 (centres unmarked) [Example 1.02], the IC50 (A. baumannii (ATCC17978); A. baumannii ATCC17978) was 0.693 µM, the IC50 [1] was < 0.098 µM and the IC50 (S. aureus (ATCC29213)) was < 0.098 µM. For the same compound, the CC50 [2] was > 100000 nM, the AUC total [3] was 291.0 ng·h/mL and the clearance [3] was 58.8 mL/min/kg. The “MIC S9” value [4] was 3.335.

With CNc1cc(F)cc2c1[nH]c1ncc(-c3cnc4c(c3)c(=O)c(C(=O)O)cn4C)c(N3CC[C@H]4CN(C)C[C@H]43)c12 [Example 3.04A] the IC50 (A. baumannii (ATCC17978); [7]) was 0.035 µM, the IC50 [1] was < 0.098 µM and the IC50 (S. aureus (ATCC29213)) was < 0.098 µM. It also gave a solubility thermodynamic [5] of 485 µg/mL (≈ 896 µM), a CC50 at 3 days [6] of 49500 nM and an AUC total [3] of 241.6 ng·h/mL. The clearance [3] was 68.9 mL/min/kg and the “MIC S9” value [4] was 6.77.

With CNc1cc(F)cc2c1[nH]c1ncc(-c3cnc4c(c3)c(=O)c(C(=O)O)cn4NC)c(N3CC[C@H]4CN(C)C[C@H]43)c12 [Example 3.05A] the IC50 (A. baumannii (ATCC17978); [7]) was 0.055 µM, the IC50 [1] was < 0.098 µM and the IC50 (S. aureus (ATCC29213)) was < 0.098 µM. It also gave a solubility thermodynamic [5] of 535 µg/mL (≈ 961 µM), a CC50 at 3 days [6] of 54500 nM and an AUC total [3] of 356.4 ng·h/mL. For the same compound, the clearance [3] was 50.5 mL/min/kg and the “MIC S9” value [4] was 6.957.
